Measured values: patent publication US9107905B2 (Agency for Science, Technology and Research, priority 2006, dated 2015)
Read-outs that look alike come from different tables or passages of the source.

Assays:
C. albicans yeast cells = assay: hyphal induction assay (germ tube formation, yeast-hypha switch); type: cell-based, Candida albicans; details: for EC50: read-out: I50 (hyphal induction); for hypha-inducing activity: result in words
[1] = target: GST-LRR fusion (LRR domain of CaCdc35p) (Candida albicans, UniProt A0A1D8PR83); assay: tryptophan fluorescence quenching of recombinant LRR domain; type: binding; details: for Kd: nonlinear regression of fluorescence quenching, read-out: equilibrium dissociation constant (Kd); for fluorescence quenching: result in words
Chain of GST-LRR fusion (LRR domain of CaCdc35p) (A0A1D8PR83 entry or part of it): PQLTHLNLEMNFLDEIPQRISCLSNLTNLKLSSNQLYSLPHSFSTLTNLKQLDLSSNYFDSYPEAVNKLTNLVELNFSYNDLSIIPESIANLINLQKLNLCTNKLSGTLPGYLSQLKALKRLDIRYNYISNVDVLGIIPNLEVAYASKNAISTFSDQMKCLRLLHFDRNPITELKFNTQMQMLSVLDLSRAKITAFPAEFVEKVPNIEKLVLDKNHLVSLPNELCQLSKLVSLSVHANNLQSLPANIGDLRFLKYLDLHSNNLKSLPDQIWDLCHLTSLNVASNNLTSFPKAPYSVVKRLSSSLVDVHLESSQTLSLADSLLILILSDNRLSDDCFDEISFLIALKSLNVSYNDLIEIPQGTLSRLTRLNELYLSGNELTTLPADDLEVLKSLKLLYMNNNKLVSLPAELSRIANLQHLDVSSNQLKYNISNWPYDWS
Description: Since specific binding of a molecule to a tryptophan-containing protein may cause concentration-dependent quenching; of tryptophan fluorescence, fluorescence spectroscopy was used to measure the intensity of tryptophan fluorescence of the recombinant LRR domains in the presence of different concentrations of MLADiQ. […] The fluorescence spectrum of GST was not affected by any of the compounds used.

[2] = tested on: GST-LRR fusion protein (LRR domain of CaCdc35p); assay: circular dichroism (CD) spectroscopy of recombinant LRR domain; type: binding, Candida albicans
Description: Next, the possibility that MLA 71Q may directly bind to the LRR domain of CaCdc35p was explored. The wild-type LRR domain and that of Irr9mu were expressed in E. coli as glutathione-S-transferase (GST) fusions and purified to high homogeneity. Then circular dichroism (CD) spectroscopy was used to detect possible direct interaction between the LRR domain and MLADIQ. CD is a reliable tool in detecting conformational changes in a protein as a result of ligand binding (Woody, R. W. (1995). Methods Enzymol. 246, 34-71).

[3] = synthetic compounds and reference inducer

SMILES	Kd [1]	fluorescence quenching [1]	shift of the ellipticity values of the CD spectra [2]	hypha-inducing activity (C. albicans yeast cells)	EC50 (C. albicans yeast cells; [3])	also measured
C[C@H](NC(=O)[C@@H](C)O[C@H]1[C@H](O)[C@@H](CO)OC(O)[C@@H]1N)C(=O)O (stereo partly drawn)	1.67 ± 0.13 µM	lower levels of fluorescence quenching	weaker but consistent spectrum shift	–	–	EC50 (C. albicans yeast cells; synthetic compounds): ~200 µM
CC(=O)N[C@H]1C(O)O[C@H](CO)[C@@H](O)[C@@H]1O[C@H](C)C(=O)O (stereo partly drawn) [N-acetylmuramic acid, reference compound]	–	–	–	Neither muramic nor N-acetylmuramic acid was active	–	–
CC(=O)N[C@H]1C(O)O[C@H](CO)[C@@H](O)[C@@H]1O (stereo partly drawn) [NAG, N-Acetylglucosamine, reference compound]	6.8 ± 0.32 µM	lower levels of fluorescence quenching	weaker but consistent spectrum shift	–	~3000 µM	–
CC(=O)NC1C(O)OC(CO)C(O)C1OC(C)C(=O)NC(C)C(=O)O [NMLA, N-acetylmurmyl-L-alanine]	–	–	–	–	~8000 µM	–
CC(=O)NC1C(O)OC(CO)C(O)C1OC(C)C(=O)NC(C)C(=O)NC(CCC(=O)O)C(N)=O [NMLADiQ, N-acetylmuramyl-L-alanyl-D isoglutamine]	5.26 ± 0.47 µM	lower levels of fluorescence quenching	weaker but consistent spectrum shift	–	~6000 µM	concentration above which the activity started to drop significantly (C. albicans yeast cells): above 20 mM; highest germ tube formation induced (C. albicans yeast cells; at increased concentrations): ≤ 60%; times less active than MLADiQ (C. albicans yeast cells; from I50): 600 times
O=C(CO)[C@@H](O)[C@H](O)[C@H](O)CO [fructose, reference compound]	–	–	–	none of these compounds was found to have appreciable hypha-inducing activity	–	–
OCC(O)CO [glycerol, reference compound]	–	–	–	none of these compounds was found to have appreciable hypha-inducing activity	–	–
CC(O)C(=O)O (stereo not drawn) [lactic acid, reference compound]	–	–	–	none of these compounds was found to have appreciable hypha-inducing activity	–	–
C[C@@H](O[C@H]1[C@H](O)[C@@H](CO)OC(O)[C@@H]1N)C(=O)O (stereo partly drawn) [muramic, muramic acid, reference compound]	–	–	–	Neither muramic nor N-acetylmuramic acid was active	–	–
